Measured values reported in US20060002870A1 (priority 2004, published 2006).

Test system: skin
Test: Clinical study of intensity and tonality of self-tanning with merospheres, empty liposomes and ursolic acid (Chromameter, forearms)
Format: in vivo, human
Conditions: added to 3% DHA, 5% pentylene glycol; 5 hours and 24 hours; FIG. 7
Description: This clinical study is designed to investigate the intensity and tonality of self-tanning with a formulation containing different combination of merospheres, empty liposomes and ursolic acid. The following materials are tested: A total of […] panelists participate in the study. The panel is divided in seven groups of 7-8 corresponding to the seven test materials. The panelists apply the “control” formulation containing 3% DHA-PG on the right arm and the assigned test material on the other arm. For each panelist exact amounts (800 μl each) of the test materials are dispensed on the forearms and blended in by the panelists. Color measurements are obtained with the Chromameter before treatment and 5 hours and 24 hours. Decrease in reflectance and increase in red coloration and yellow coloration (ΔL*, Δa* and Δb* values) obtained from the Chromameter are calculated as compared to baseline skin color. Total color change ΔE* is calculated for each time point as follows: ΔE*={overscore (V(ΔL*)^2+(Δa*)^2+(Δb)}*)^2 For assessing the tonality, Chroma (ΔC*) is calculated and plotted against reflectance (ΔL* values) within the “Natural Universe of Tan”. This Natural Universe is the range of color of tan obtained by multiple or single exposures to the sun.

## C[C@H]1[C@H](C)CC[C@]2(C(=O)O)CC[C@]3(C)C(=CC[C@@H]4[C@@]5(C)CC[C@H](O)C(C)(C)[C@@H]5CC[C@]43C)[C@H]12 [ursolic acid]
  Self-tanning effect (ΔE*): neither addition of empty liposomes nor ursolic acid alone changes the self-tanning effect
